Experimental data reported in patent US20040039014A1, “Methods and compounds for treating depression and other disorders” (NPS Pharmaceuticals, Inc., priority 1998, published 2004).
Where a name gives a salt, the structure may show the parent alone. Read-outs that look alike come from different tables or passages of the source. Values belong to the compound of their own block, whether it stands above or below them.

How the values were obtained:
NMDA receptor = target: T1, NMDA receptor; assay: [3H]MK-801 binding assay (rat cortex synaptic plasma membranes); settings: read-out: [3H]MK-801 data IC50, Table I
T1 construct: rat cortex membranes
Description: Synaptic plasma membranes (SPMs) from rat cortex were prepared as follows. Isolated cerebral cortices from male and female rats were purchased from Pel-Freez (Rogers, Ariz.) in bulk, and stored at −80° C. The cortices from 25 rats were thawed and pooled. […] The resulting homogenates were centrifuged for 10 min at 1,000×g in a T865 rotor, UltraPro80 Sorvall Centrifuge. The supernatant was removed and subsequently centrifuged at 30,000×g for 30 min. […] Membranes were washed by re-suspension in 500 ml of 5 mM K-EDTA (pH 7.0), incubated at 32° C. for 30 min with stirring, and centrifuged at 100,000×g for 30 min. The final pellet was resuspended in 60 ml of […] K-EDTA (pH 7.0) and stored in aliquots at −80° C. The extensive washing procedure utilized in this assay was designed to minimize the concentrations of glutamate and glycine (co-agonists at the NMDA receptor-ionophore complex) present in the membrane preparation.
On the day of assay, aliquots of SPM were thawed and resuspended in 75 vols of 5 mM K-EDTA, pH 7.0. SPM were centrifuged at 100,000×g for 30 min at 4° C.
The SPM pellet was resuspended in assay buffer (30 mM EPPS, 1 mM K-EDTA, pH 7.0) by polytron. […] Binding was started by the addition of the tissue homogenate. The assay was terminated by the addition of 4 ml ice-cold buffer, followed by filtration over glass-fiber filters (Schleicher & Schuell No. 30) on a Millipore 12-well filtration manifold. Filters were washed with another 3 ×4 ml ice-cold buffer (pH 7.0). Radioactivity on the filters was measured using Fisherbrand Scinti-Safe scintillation cocktail. Samples were shaken for 45-60 min on a shaker platform to solubilize the radioactivity. Counting for ^3H was performed in a Beckman 6000IC LS Scintillation Counter for 4 min per sample.

[1] = target: T2, serotonin transporter site (Rattus norvegicus, UniProt P31652); assay: Serotonin reuptake inhibition assay ([3H]citalopram binding, rat forebrain membranes); settings: Table I; for Ki: read-out: 5-HT Uptake Ki; for inhibition at 0.1 µM: @ 100 nM (top number); for inhibition at 0.1 µM / inhibition at 10 µM: read-out: 5-HT Uptake mean % inhibition; for inhibition at 10 µM: @ 10.0 μM (bottom number)
T2 construct: tissue NovaScreen (performed the assay); host or cells: rat forebrain membranes
Description: (§1) Monoamine Transporter Minding Assays
(§2) Monoamine transporter binding assays (reuptake inhibition assays) were performed by NovaScreen using standard radioligand binding assays. The transporter binding assays are described briefly below:
Serotonin Reuptake Inhibition Assay
Rat forebrain membranes were incubated with 0.7 nM [^3H] citalopram, N-methyl, (70-87 Ci/mmol)in 50 mM Tris-HCl (pH 7.4), 120 mM NaCl, and 5 mM KCl at 25° C. for 60 minutes. […] Reactions were terminated by rapid vacuum filtration onto glass fiber filters.

[2] = target: T3, norepinephrine transporter site (Rattus norvegicus, UniProt Q63380); assay: Norepinephrine reuptake inhibition assay ([3H]nisoxetine binding, rat forebrain membranes); settings: for Ki: read-out: NE Uptake Ki; for inhibition at 0.1 µM / inhibition at 10 µM: read-out: NE Uptake mean % inhibition
T3 construct: tissue NovaScreen (performed the assay); host or cells: rat forebrain membranes
Description: as §1, §2
Norepinephrine Reuptake Inhibition Assay
Reactions were terminated by rapid vacuum filtration onto glass fiber filters.

[3] = target: T4, dopamine transporter site (Cavia porcellus, UniProt H0WCX4); assay: Dopamine reuptake inhibition assay ([3H]WIN 35428 binding, guinea pig striatal membranes); settings: for Ki: read-out: DA Uptake Ki; for inhibition at 0.1 µM / inhibition at 10 µM: read-out: DA Uptake mean % inhibition
T4 construct: tissue NovaScreen (performed the assay); host or cells: guinea pig striatal membranes
Description: as §1, §2
Dopamine Reuptake Inhibition Assay:
Reactions were terminated by rapid vacuum filtration onto glass fiber filters. Bound radioactivity was determined using liquid scintillation spectrometry and experimental values were compared to control values to determine binding to the dopamine transporter site based on Madras, et al., Molec.

[4] = @ 10.0 μM (bottom number), Table I

T3 sequence (Q63380 1-617): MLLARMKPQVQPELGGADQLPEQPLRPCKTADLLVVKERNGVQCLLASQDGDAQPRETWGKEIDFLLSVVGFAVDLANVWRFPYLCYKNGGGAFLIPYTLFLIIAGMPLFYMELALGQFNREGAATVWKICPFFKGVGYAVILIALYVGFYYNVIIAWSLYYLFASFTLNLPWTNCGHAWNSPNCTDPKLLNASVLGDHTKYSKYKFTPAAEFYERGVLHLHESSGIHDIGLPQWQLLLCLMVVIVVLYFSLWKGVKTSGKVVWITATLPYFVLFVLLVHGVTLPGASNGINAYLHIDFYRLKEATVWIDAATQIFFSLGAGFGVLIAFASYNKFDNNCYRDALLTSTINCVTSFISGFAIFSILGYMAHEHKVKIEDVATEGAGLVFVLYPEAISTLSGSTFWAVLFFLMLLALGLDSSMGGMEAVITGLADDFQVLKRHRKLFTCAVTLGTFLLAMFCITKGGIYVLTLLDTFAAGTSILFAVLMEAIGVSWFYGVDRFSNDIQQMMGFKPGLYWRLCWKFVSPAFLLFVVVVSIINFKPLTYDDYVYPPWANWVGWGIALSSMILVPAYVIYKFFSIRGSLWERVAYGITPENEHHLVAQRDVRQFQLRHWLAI
T4 sequence (H0WCX4 1-619): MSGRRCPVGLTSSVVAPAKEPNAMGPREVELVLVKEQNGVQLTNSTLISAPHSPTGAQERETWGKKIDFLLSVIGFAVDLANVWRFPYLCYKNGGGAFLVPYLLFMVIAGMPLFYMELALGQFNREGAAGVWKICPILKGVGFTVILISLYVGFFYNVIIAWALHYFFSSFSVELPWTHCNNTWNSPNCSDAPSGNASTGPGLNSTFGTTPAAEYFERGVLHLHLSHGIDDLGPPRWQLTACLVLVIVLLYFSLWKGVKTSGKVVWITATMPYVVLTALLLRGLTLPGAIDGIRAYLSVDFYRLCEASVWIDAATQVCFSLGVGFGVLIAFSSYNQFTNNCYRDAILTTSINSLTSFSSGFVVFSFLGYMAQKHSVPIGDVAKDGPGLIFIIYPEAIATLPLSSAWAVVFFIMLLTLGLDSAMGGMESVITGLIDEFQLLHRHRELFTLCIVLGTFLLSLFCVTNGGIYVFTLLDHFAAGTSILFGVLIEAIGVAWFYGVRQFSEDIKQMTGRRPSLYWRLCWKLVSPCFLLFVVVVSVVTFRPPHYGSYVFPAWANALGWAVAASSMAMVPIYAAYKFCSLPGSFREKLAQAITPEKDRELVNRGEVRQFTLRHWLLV
T2 sequence (P31652 whole entry): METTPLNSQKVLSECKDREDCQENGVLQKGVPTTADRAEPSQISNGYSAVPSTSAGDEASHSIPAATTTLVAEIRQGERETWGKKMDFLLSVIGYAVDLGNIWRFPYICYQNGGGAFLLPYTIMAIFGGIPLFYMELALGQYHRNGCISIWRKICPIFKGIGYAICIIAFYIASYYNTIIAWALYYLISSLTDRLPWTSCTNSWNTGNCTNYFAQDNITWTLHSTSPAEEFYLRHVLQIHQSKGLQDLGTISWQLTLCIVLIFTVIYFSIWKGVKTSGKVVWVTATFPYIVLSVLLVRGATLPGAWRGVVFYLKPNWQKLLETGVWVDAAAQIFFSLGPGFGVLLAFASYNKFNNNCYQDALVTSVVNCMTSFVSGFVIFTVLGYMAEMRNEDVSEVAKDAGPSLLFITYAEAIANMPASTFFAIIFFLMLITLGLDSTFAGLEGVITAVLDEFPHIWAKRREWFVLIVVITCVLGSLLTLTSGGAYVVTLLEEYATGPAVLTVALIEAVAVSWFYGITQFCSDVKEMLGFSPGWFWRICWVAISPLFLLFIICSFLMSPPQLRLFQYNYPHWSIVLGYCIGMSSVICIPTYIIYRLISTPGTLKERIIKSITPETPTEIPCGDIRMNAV

Structure (SMILES): NCCC1c2ccccc2CCc2ccccc21 [Compound 156, 5-(2-Aminoethyl)-5H-10,11-dihydrodibenzo [a, d] cycloheptene hydrochloride]
- IC50 (NMDA receptor): 90 nM
- Ki [1]: 1200 nM
- Ki ([2]; Table I): 570 nM
- Ki ([3]; Table I): > 10000 nM

Structure (SMILES): NCC[C@@H](Oc1cccc(F)c1)c1ccccc1 [Compound 185, (R)-3-(3-Fluorophenoxy)-3-phenylpropylamine]
- Ki [1]: 2400 nM
- Ki ([3]; Table I): 1100 nM

Structure (SMILES): NCCC1c2ccccc2CCc2c(F)cccc21 (centres unmarked) [Compound 196]
- IC50 (NMDA receptor): 2240 nM

Structure (SMILES): NCCC1c2cc(F)ccc2CCc2ccc(F)cc21 [Compound 195]
- IC50 (NMDA receptor): 29 nM

Structure (SMILES): NCCC1c2cc(F)ccc2CCc2c(F)cccc21 (centres unmarked) [Compound 194]
- IC50 (NMDA receptor): 371 nM

Structure (SMILES): N[C@@H]1CCCC1C(c1cccc(F)c1)c1cccc(F)c1 (some centres unmarked) [Compound 64]
- IC50 (NMDA receptor): 851 nM
- Ki [1]: 252 nM
- Ki ([2]; Table I): 508 nM
- Ki ([3]; Table I): 119 nM

Structure (SMILES): NCC[C@H](Oc1cccc(F)c1)c1ccccc1 [Compound 186]
- Ki ([3]; Table I): 3100 nM

Structure (SMILES): CN[C@@H](C)CC(c1cccc(F)c1)c1cccc(F)c1 [Compound 69]
- IC50 (NMDA receptor): 366 nM

Structure (SMILES): NCCC1c2ccccc2CCc2ccc(F)cc21 (centres unmarked) [Compound 197]
- IC50 (NMDA receptor): 53 nM
- inhibition at 0.1 µM [1]: 9.8%
- inhibition at 10 µM [1]: 58.1%
- inhibition at 0.1 µM ([2]; @ 100 nM (top number), Table I): 0%
- inhibition at 10 µM [2, 4]: 27.5%
- inhibition at 0.1 µM ([3]; @ 100 nM (top number), Table I): 0%
- inhibition at 10 µM [3, 4]: 83.5%

Structure (SMILES): CCNCCC(c1cccc(F)c1)c1cccc(F)c1 [Compound 59]
- IC50 (NMDA receptor): 453 nM
- inhibition at 0.1 µM [1]: 14.3%
- inhibition at 10 µM [1]: 85.7%
- inhibition at 0.1 µM ([2]; @ 100 nM (top number), Table I): 7.4%
- inhibition at 10 µM [2, 4]: 50.6%
- inhibition at 0.1 µM ([3]; @ 100 nM (top number), Table I): 1.6%
- inhibition at 10 µM [3, 4]: 77.6%

Structure (SMILES): NCC[C@H](Oc1cccc(F)c1)c1cccc(F)c1 [Compound 192]
- Ki [1]: 14 nM
- Ki ([2]; Table I): 325 nM
- Ki ([3]; Table I): 1300 nM

Structure (SMILES): N[C@H]1CCCC1C(c1cccc(F)c1)c1cccc(F)c1 (some centres unmarked) [Compound 63]
- IC50 (NMDA receptor): 245 nM
- inhibition at 0.1 µM [1]: 13.4%
- inhibition at 10 µM [1]: 84.6%
- inhibition at 0.1 µM ([2]; @ 100 nM (top number), Table I): 6.8%
- inhibition at 10 µM [2, 4]: 76.2%
- inhibition at 0.1 µM ([3]; @ 100 nM (top number), Table I): 64.3%
- inhibition at 10 µM [3, 4]: 97.8%

Structure (SMILES): NCC[C@@H](Oc1cccc(F)c1)c1cccc(F)c1 [Compound 191]
- IC50 (NMDA receptor): 1300 nM
- Ki [1]: 134 nM
- Ki ([2]; Table I): 638 nM
- Ki ([3]; Table I): 1550 nM

Structure (SMILES): CNC[C@H](C)C(c1cccc(F)c1)c1cccc(F)c1 [Compound 66]
- IC50 (NMDA receptor): 1200 nM
- inhibition at 0.1 µM [1]: 6.1%
- inhibition at 10 µM [1]: 67.5%
- inhibition at 0.1 µM ([2]; @ 100 nM (top number), Table I): 4.2%
- inhibition at 10 µM [2, 4]: 36.5%
- inhibition at 0.1 µM ([3]; @ 100 nM (top number), Table I): 4.4%
- inhibition at 10 µM [3, 4]: 92.8%

Structure (SMILES): CC(CN)C(c1cccc(Cl)c1)c1cccc(Cl)c1 (centres unmarked) [Compound 46]
- IC50 (NMDA receptor): 5200 nM
- inhibition at 0.1 µM [1]: 10.4%
- inhibition at 10 µM [1]: 75.4%
- inhibition at 0.1 µM [2]: 7.4%
- inhibition at 10 µM [2]: 64%
- inhibition at 0.1 µM [3]: 40.2%
- inhibition at 10 µM [3]: 97.1%

Structure (SMILES): Cc1ccc(F)cc1C(CCN)c1cc(F)ccc1C [Compound 58]
- IC50 (NMDA receptor): 203 nM
- inhibition at 0.1 µM [1]: 27.2%
- inhibition at 10 µM [1]: 95.2%
- inhibition at 0.1 µM ([2]; @ 100 nM (top number), Table I): 1.3%
- inhibition at 10 µM [2, 4]: 66.6%
- inhibition at 0.1 µM ([3]; @ 100 nM (top number), Table I): 0%
- inhibition at 10 µM [3, 4]: 45.2%

Structure (SMILES): NCCC(Oc1ccccc1)c1cccc(F)c1 (centres unmarked) [Compound 118]
- IC50 (NMDA receptor): 240 nM
- Ki [1]: 131 nM
- Ki ([3]; Table I): 4100 nM

Structure (SMILES): Cc1ccccc1C(CCN)c1ccccc1C [Compound 65]
- IC50 (NMDA receptor): 2000 nM
- Ki [1]: 127 nM
- Ki ([3]; Table I): 22000 nM

Structure (SMILES): NCCC(Oc1cccc(F)c1)c1cccc(F)c1 (centres unmarked) [Compound 119, 3-(3-Fluorophenoxy)-3-(3-fluorophenyl)-1-propylamine]
- inhibition at 0.1 µM [1]: 0.6%
- inhibition at 10 µM [1]: 3.1%

Structure (SMILES): Cc1ccccc1OC(CCN)c1ccccc1 (centres unmarked) [Compound 177]
- IC50 (NMDA receptor): 754 nM
- Ki [2]: 109 nM
- Ki ([3]; Table I): > 10000 nM

Structure (SMILES): NCCC1c2cccc(F)c2CCc2c(F)cccc21 [Compound 193]
- IC50 (NMDA receptor): > 1000 nM

Structure (SMILES): Fc1ccc([C@@H]2CCNC[C@H]2COc2ccc3c(c2)OCO3)cc1 [Paroxetine, reference compound]
- inhibition at 0.1 µM [3]: < 20%

The next lines start with the values.

- IC50 (NMDA receptor): 342 nM
- Ki [1]: 62 nM
- Ki ([2]; Table I): 103 nM
- Ki ([3]; Table I): 2800 nM
Structure (SMILES): NCCC(Oc1ccccc1F)c1cccc(F)c1 (centres unmarked) [Compound 122]

- IC50 (NMDA receptor): 5010 nM
Structure (SMILES): NCCC1c2ccccc2Sc2ccccc21 [Compound 183]

- IC50 (NMDA receptor): 1510 nM
Structure (SMILES): NCCC1c2ccccc2C=Cc2ccccc21 [Compound 184]

- IC50 (NMDA receptor): 150 nM
Structure (SMILES): NCCC(Oc1cccc(Cl)c1)c1cccc(Cl)c1 (centres unmarked) [Compound 149]

- IC50 (NMDA receptor): 632 nM
- inhibition at 0.1 µM [1]: 37.4%
- inhibition at 10 µM [1]: 74.2%
- inhibition at 0.1 µM ([2]; @ 100 nM (top number), Table I): 10.7%
- inhibition at 10 µM [2, 4]: 32%
- inhibition at 0.1 µM ([3]; @ 100 nM (top number), Table I): 0%
- inhibition at 10 µM [3, 4]: 109%
Structure (SMILES): Cc1ccccc1OC(CCN)c1cccc(F)c1 (centres unmarked) [Compound 181]

- IC50 (NMDA receptor): 373 nM
Structure (SMILES): NCCC(Oc1ccccc1)c1cccc(Cl)c1 (centres unmarked) [Compound 148]

- IC50 (NMDA receptor): 670 nM
- inhibition at 0.1 µM [1]: 8.5%
- inhibition at 10 µM [1]: 84.3%
- inhibition at 0.1 µM ([2]; @ 100 nM (top number), Table I): 33.6%
- inhibition at 10 µM [2, 4]: 94.9%
- inhibition at 0.1 µM ([3]; @ 100 nM (top number), Table I): 1.8%
- inhibition at 10 µM [3, 4]: 91.3%
Structure (SMILES): COc1ccccc1OC(CCN)c1cccc(F)c1 (centres unmarked) [Compound 121]

- IC50 (NMDA receptor): 2010 nM
Structure (SMILES): NCCC1c2ccccc2COc2ccccc21 (centres unmarked) [Compound 187]

- IC50 (NMDA receptor): 74 nM
Structure (SMILES): NCCC(Oc1cccc(Cl)c1)c1cccc(F)c1 (centres unmarked) [Compound 120]

- IC50 (NMDA receptor): 942 nM
Structure (SMILES): CNCCC(c1ccccc1)c1cccc(F)c1 (centres unmarked) [Compound 108]

- IC50 (NMDA receptor): 1250 nM
Structure (SMILES): COc1ccccc1OC(CCN)c1ccccc1 (centres unmarked) [Compound 178]

- IC50 (NMDA receptor): 7050 nM
Structure (SMILES): NCCC1c2ccccc2Oc2ccccc21 [Compound 182]

- IC50 (NMDA receptor): 351 nM
Structure (SMILES): NCCC(Oc1cccc(F)c1)c1cccc(Cl)c1 (centres unmarked) [Compound 150]

- IC50 (NMDA receptor): 626 nM
- inhibition at 0.1 µM [1]: 3.5%
- inhibition at 10 µM [1]: 81.1%
- inhibition at 0.1 µM ([2]; @ 100 nM (top number), Table I): 16.6%
- inhibition at 10 µM [2, 4]: 99.4%
- inhibition at 0.1 µM ([3]; @ 100 nM (top number), Table I): 0%
- inhibition at 10 µM [3, 4]: 87.4%
Structure (SMILES): CNCCC(Oc1cccc(F)c1)c1cccc(F)c1 (centres unmarked) [Compound 145]

- IC50 (NMDA receptor): 1540 nM
Structure (SMILES): CNCCC(c1cccc(F)c1)c1cccc(OC)c1 (centres unmarked) [Compound 142]
